Measurements as given in ChEMBL document CHEMBL5465560, “Selectivity Literature for EUbOPEN Chemogenomic Library” (2024).

Tests used:
[1] = target: T1, Dual specificity mitogen-activated protein kinase kinase 4 (Homo sapiens) (UniProt P45985); assay: Selectivity interaction (ActivX KiNativ screen (ex vivo kinase selectivity in human PBMCs)) EUB0001619a MAP2K4; format: cell-based; conditions: PBMC, at 1 µM
T1 sequence (whole entry): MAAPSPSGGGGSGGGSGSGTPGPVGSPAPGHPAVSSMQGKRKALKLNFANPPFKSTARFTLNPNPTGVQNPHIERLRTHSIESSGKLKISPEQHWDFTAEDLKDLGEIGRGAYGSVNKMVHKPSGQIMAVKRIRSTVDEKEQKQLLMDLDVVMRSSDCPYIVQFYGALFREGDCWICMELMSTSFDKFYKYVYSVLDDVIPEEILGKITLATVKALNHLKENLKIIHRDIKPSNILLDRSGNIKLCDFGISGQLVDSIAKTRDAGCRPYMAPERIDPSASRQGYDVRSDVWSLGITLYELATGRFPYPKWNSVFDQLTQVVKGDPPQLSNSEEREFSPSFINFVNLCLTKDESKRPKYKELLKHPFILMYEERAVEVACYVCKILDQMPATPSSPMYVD

[2] = target: T2, Serine/threonine-protein kinase 36 (Homo sapiens) (UniProt Q9NRP7); assay: Selectivity interaction (KinomeScan (DiscoverX)) EUB0000655a STK36; conditions: at 10 µM
T2 sequence (whole entry): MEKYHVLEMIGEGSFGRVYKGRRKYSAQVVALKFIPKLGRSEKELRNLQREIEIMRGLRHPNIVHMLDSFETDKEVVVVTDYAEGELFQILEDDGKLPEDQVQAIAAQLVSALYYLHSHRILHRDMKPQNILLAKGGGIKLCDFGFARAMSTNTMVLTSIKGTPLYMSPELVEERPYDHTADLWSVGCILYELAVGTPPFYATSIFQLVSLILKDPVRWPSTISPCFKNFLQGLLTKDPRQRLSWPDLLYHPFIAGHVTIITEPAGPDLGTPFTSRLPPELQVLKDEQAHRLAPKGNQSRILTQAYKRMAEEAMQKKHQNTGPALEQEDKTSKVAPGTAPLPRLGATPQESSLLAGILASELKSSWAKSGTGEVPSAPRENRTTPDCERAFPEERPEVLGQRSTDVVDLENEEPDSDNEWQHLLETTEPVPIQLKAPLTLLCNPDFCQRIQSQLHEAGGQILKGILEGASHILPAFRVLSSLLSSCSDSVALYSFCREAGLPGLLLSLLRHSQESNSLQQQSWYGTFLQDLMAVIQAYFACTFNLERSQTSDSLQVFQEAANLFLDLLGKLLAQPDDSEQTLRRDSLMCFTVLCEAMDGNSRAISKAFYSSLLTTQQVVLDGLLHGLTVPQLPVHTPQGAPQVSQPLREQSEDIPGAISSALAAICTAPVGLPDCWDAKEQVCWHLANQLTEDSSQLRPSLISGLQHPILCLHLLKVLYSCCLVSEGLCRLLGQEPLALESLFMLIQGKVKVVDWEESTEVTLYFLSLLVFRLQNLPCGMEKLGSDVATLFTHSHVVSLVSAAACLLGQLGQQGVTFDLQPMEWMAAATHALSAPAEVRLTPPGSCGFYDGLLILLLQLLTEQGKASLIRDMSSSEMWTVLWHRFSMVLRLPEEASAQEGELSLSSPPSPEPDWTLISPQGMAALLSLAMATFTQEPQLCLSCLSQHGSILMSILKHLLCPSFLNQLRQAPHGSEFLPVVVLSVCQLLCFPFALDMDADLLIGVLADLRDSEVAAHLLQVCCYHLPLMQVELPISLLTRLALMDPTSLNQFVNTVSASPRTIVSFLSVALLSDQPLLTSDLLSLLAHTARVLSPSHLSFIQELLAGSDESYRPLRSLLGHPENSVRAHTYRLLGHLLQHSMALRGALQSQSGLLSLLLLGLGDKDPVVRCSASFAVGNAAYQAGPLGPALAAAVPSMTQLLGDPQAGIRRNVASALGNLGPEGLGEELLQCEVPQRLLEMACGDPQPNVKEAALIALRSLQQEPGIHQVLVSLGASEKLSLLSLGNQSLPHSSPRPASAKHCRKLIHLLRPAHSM

[3] = target: T3, Ephrin type-B receptor 3 (Homo sapiens) (UniProt P54753); assay: Selectivity interaction (SelectScreen profiling (Invitrogen)) EUB0000607a EPHB3; conditions: at 2 µM
T3 sequence (whole entry): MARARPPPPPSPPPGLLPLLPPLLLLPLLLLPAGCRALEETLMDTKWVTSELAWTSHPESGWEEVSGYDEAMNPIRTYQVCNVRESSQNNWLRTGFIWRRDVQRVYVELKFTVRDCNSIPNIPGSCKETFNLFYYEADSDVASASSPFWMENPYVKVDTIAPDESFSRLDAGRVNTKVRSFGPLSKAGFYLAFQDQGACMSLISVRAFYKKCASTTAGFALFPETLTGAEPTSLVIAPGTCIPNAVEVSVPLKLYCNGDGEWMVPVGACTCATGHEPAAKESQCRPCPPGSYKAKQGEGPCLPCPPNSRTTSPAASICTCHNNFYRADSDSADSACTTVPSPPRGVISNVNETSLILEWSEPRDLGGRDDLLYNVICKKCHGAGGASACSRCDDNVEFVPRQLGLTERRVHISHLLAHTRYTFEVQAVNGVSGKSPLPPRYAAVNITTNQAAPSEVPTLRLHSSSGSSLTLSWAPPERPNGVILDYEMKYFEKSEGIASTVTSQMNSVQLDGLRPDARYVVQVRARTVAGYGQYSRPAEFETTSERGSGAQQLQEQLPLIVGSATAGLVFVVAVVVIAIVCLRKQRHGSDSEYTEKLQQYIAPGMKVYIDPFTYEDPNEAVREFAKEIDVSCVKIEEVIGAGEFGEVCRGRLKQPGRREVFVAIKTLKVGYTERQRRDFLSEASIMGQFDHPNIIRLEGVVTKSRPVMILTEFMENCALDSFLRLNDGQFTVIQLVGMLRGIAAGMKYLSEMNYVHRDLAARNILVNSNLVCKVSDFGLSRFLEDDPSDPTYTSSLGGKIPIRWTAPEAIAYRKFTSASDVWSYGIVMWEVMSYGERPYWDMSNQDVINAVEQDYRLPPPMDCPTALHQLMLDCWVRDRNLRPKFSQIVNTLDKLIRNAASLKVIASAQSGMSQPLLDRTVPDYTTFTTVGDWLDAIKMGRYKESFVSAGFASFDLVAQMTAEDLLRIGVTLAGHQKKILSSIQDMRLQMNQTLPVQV

N#Cc1cccc(-c2c[nH]c3ncnc(N4CCOCC4)c23)c1
% of inhibition [1]: -17%

CN(C)CCOc1ccc(-c2nc(-c3ccncc3)c(-c3ccc4c(c3)CC/C4=N\O)[nH]2)cc1
% of control [2]: 35%

CNC(=O)Nc1ccc(-c2nc(N3CC4CCC(C3)O4)c3cnn(C4CCC5(CC4)OCCO5)c3n2)cc1
% of inhibition [3]: 3%
